These results are taken from patent publication US20110143960A1, “3D-MODELS FOR HIGH-THROUGHPUT SCREENING DRUG DISCOVERY AND DEVELOPMENT” (priority 2009, published 2011).

As a reminder, the IC50 is the point on the concentration scale where inhibition reaches its midpoint.

In data set [1] the test system is VimPro-Fluc-MDA-MB-231 cells. It counts as cell-based. The settings on record: VimPro-Fluc-MDA-MB-231 monolayer, 72 h. As for the experimental part: (§1) A 2D-screen was conducted with small molecule antitumor agents, growth factors or antibodies (FIG. 2B). All cells were cultured in 100 mm tissue culture dishes in RPMI-1640 supplemented with 10% FBS and maintained in a 5% CO2 incubator at 37° C. VimPro-Fluc-MDA-MB-231 and VimPro-Fluc-PMC42-LA were seeded at 5,000 cells/well into 96-well white plates and incubated overnight for 16 h. VimPro-Fluc-PMC42-LA and VimPro-Fluc-MDA-MB-231 cells were treated for 72 h. The treatment medium was replaced with 50 μL fresh medium, then 50 μL of One-Glo Luciferase reagent and incubated at room temperature for 10 min. Luminescence was recorded with an integration time of 1 sec/well using a luminescence microplate reader.

Data set [2] deals with VimPro-Fluc-PMC42-LA cells. It counts as cell-based. As to conditions: VimPro-Fluc-PMC42-LA monolayer, 10 ng/mL EGF, 72 h. As for the experimental part:
as §1

Data set [3] concerns VimPro-Fluc-MDA-MB-231 spheroids. Briefly: Live 3D-spheroid vimentin expression assay (VimPro-Fluc, DMNPE-caged luciferin). As to conditions: read-out: IC50 vimentin expression, dose response. It counts as cell-based.
Procedure: Uniform single-spheroids of MDA-MB-231 and VimPro-Fluc-MDA-MB-231 breast carcinoma cells were cultured in 96-well flat bottom plates coated with 50 μL of a 1.5% agarose (weight/volume) solution in serum free RPMI-1640 (no phenol red) medium (freshly autoclaved at 121° C. for 15 min). During the coating process the agarose/RPMI-1640 solution was maintained at >60° C. followed by cooling and setting at room temperature for 40 min. Cells were plated at a density of 10,000 cells/well in 50 μL of RPMI-1640 (10% FBS, no phenol red) and centrifuged at 1,000 rpm for 15 min to induce cell aggregation. […]
VimPro-Fluc-MDA-MB-231 spheroids were cultured in 96-well optical bottom white plates and treated as described above. On day 8, after 72 h treatment with control EMT modulators, live spheroid vimentin expression was measured by adding 10 μL (final 12.5 μM) of DMNPE-caged luciferin to each well and incubating at 37° C., 5% CO2 for 2 h.
Uniform single spheroids were cultured in 96-well optical bottom white plates as described above and treated on day 5. […] After 72 h, vimentin expression was measured by adding 10 μL (final 12.5 μM) of DMNPE-caged luciferin to each well and incubated for 2 h (37° C., 5% CO2). Luminescence was recorded with an integration time of 1 second/well (FIG. 9A-D).
In data set [4] the test system is MDA-MB-231 spheroids. The data set is described as follows: Modified Boyden chamber cell invasion assay of cells dissociated from spheroids. It counts as cell-based. The settings on record: control modulators, 72 h treatment, 24 h invasion, FIG. 6. The procedure:
Spheroids were treated as in the primary assay. Following treatment, each sample group was disassociated into single cell suspensions and seeded into invasion chambers followed by a 24 h incubation period. VimPro-Fluc-MDA-MB-231 spheroids were treated with control EMT modulators as described using 15 spheroids per sample group. The spheroids for each sample group were pooled into 1.5 ml, micro tubes and collected by centrifugation at 10,000 rpm for 10 min at room temperature.
Each sample group was then treated with 200 μL of spheroid dissociation solution (0.25% trypsin-EDTA) and incubated at 37° C. for 30 min. Single cell suspensions of each group in RPMI-1640 medium containing 0.1% BSA were seeded at 35,000 cells/chamber (50 μL) into the top chambers of a 96-well invasion plate (BD Biosciences; Bedford, Mass.) previously coated with 50 μL of […]™ (40 μg/mL protein in RPMI-1640 medium). Chemoattractant (10%
FBS in RPMI-1640 medium, 150 μL) was added to each bottom chamber and the plate was incubated (37° C., 5% CO2) for 24 h. Following incubation the insert was removed and the medium aspirated from both top and bottom chambers. […] Each side of the membrane insert was washed 2× by adding 200 μL PBS-CMF (Ca/Mg free) to the bottom chamber, replacing the insert and adding 50 μL PBS-CMF to the top chamber. The PBS-CMF was removed and the invading cells were fixed with 200 μL of 4% paraformaldahyde in the bottom chambers at 37° C. for 15 min. The insert was washed 2× with PBS-CMF as described above. The invading cells were subsequently stained with 200 μL of DAPI (3 μg/mL) in PBS-CMF for 30 min at room temperature and washed 4×, as described above, in 15 min intervals. Invading cells were quantified using five random fields per filter insert in triplicate at 20× magnification using a fluorescent microscope equipped with metamorph image analysis and quantification software (Molecular Devices; Downingtown, Pa.).

In data set [5] the test system is vimentin in MDA-MB-231 spheroids. The data set is described as follows: Immunofluorescent vimentin staining of whole and sectioned spheroids (confocal). As to conditions: whole spheroid, outer surface / peripheral layer; U0126 10 μM 72 h. It counts as cell-based.
Procedure: Confocal 3D imaging emphasizes a surface edge of MDA-MB-231 spheroids untreated or treated with (10 μM) U0126 for 72 hours.
Spheroids were fixed with 50 μL of 3.7% formaldehyde for 10 min at room temperature. They were then washed once with PBS and 50 μL of 0.2% Triton X-100 in PBS (v/v) were added for 10 min at room temperature to permeate cells. Next they were blocked with 50 μL of cell culture medium (10% FBS) for 1 h at room temperature. Blocking medium was then aspirated and sphroids were treated with mouse anti-vimentin at 1:100 in TBST containing 20% cell culture medium (v/v) with shaking at 4° C. overnight. They were then washed (3×TBST) and stained with FITC green fluorescent conjugated goat anti-mouse secondary antibody at 1:1,000 and with DAPI (4′,6-diamidino-2-phenylindole) at 1:1,000 in TBST containing 20% cell culture medium (v/v) for 1 h at room temperature and washed with TBST 4×. After fixing with formaldehyde, some spheroids were sectioned using a Leica CM 1950 cryostat (Leica Microsystems; Germany) with thickness of 10 μm. Spheroid sections were washed with PBS and stained as described above. Spheroid sections on slides were covered with mounting medium and cover slips. Imaging of whole spheroids was done with an UltraVIEW® VoX 3D confocal microscope (Perkin Elmer) using a 20× objective. Spheroid sections were imaged using a Nikon D-Eclipse Cl confocal microscope system (Nikon Instruments Inc; Melville, N.Y.).
Vimentin expression in VimPro-Fluc-MDA-MB-231 spheroids was further assessed by immunofluorescent staining of whole spheroids treated with U0126.
For data set [6], the system named is EGF-treated PMC42-LA cells. As for the experimental part:
(§2) Cell lines were cultured as monolayers in 96-well microplates and treated with U0126, the specific inhibitor of mitogen-activated protein kinase kinase (MEK1).

The test system of another data set is MDA-MB-231 cells. The procedure: as §2
For data set [7], the system named is MDA-MB-231 spheroids. The data set is described as follows: Spheroid viability, APH assay multiplexed after vimentin readout. As to conditions: for spheroid death (control of APH assay): 10% Triton X-100, 2 h prior to APH analysis. It counts as cell-based. As for the experimental part:
Cell Viability To support the primary assay hit validation, two cell viability assays have been developed: the acid phosphatase assay (APH) and the cell-titer-glow (Promega®). Both assays give robust reproducible results in both 2D and 3D cell culture. We can also multiplex these assays using live VimPro-Fluc stable 3D-spheroids (FIG. 5). On day 8, vimentin expression was measured (luminescence as RLU/s), using a live cell permeable luciferin reagent, followed by multiplexing with the APH assay (OD405). […] Thus, downregulation of VimPro-Fluc activity by the control modulators is not due to spheroid death.
Uniform single spheroids were cultured in 96-well optical bottom white plates as described above and treated on day 5. To avoid edge effects the outer wells were unused and filled with sterilized water. 15 μL of controls and marine natural products were added to each well at final concentrations described above. After 72 h, vimentin expression was measured by adding 10 μL (final 12.5 μM) of DMNPE-caged luciferin to each well and incubated for 2 h (37° C., 5% CO2). Luminescence was recorded with an integration time of 1 second/well (FIG. 9A-D). Directly following the primary assay measuring vimentin expression, spheroid viability was multiplexed using the APH assay. Hits were confirmed using the cell invasion assay (FIG. 9E).

“Also recorded” adds a separate entry of the source. Like-named read-outs stand apart in the source and are kept apart here.

With `COc1cc2ncnc(Nc3cccc(Cl)c3)c2cc1OC` [AG1478], the vimentin expression result in data set [1] is reported as “no statistically significant effect”. For the same compound, the “EGF-induced EMT (vimentin upregulation)” value in data set [2] is listed as “significantly inhibited”.
For the compound `CNC(=O)c1ccccc1Sc1ccc2c(/C=C/c3ccccn3)n[nH]c2c1` [Axitinib], the IC50 in data set [3] (VimPro-Fluc spheroids, FIG. 8B) is 250 nM.
`C[C@@H](Oc1cc(-c2cnn(C3CCNCC3)c2)cnc1N)c1c(Cl)ccc(F)c1Cl` [PF2341066, PF-2341066]: in the data set with MDA-MB-231 spheroids [4], the “inhibition of invasive potential vs untreated spheroids” value is listed as “about 90%” and the “invasive potential of MDA-MB-231 spheroids (in words)” value (“invasive potential … (in words)” below) is “significant inhibition”.
Take `CO[C@@H]1[C@H](N(C)C(=O)c2ccccc2)C[C@H]2O[C@]1(C)n1c3ccccc3c3c4c(c5c6ccccc6n2c5c31)C(=O)NC4` [PKC412]: the “invasive potential … (in words)” value in the data set with MDA-MB-231 spheroids [4] was “significant inhibition”.
As to `N#CC(=C(/N)Sc1ccccc1N)/C(C#N)=C(\N)Sc1ccccc1N` [U0126], the vimentin expression entry in data set [1] was “significant downregulation of vimentin expression”. In addition, the “EGF-induced EMT (vimentin upregulation)” value in data set [2] is “significantly inhibited”. The IC50 in data set [3] is 2500 nM. For the same compound, in data set [5], the “vimentin protein expression by immunofluorescence” value is “overall vimentin downregulation; also recorded: Significant downregulation of vimentin protein expression; also recorded: repression of Vimentin expression”. Further, in the data set on MDA-MB-231 spheroids [4], the “inhibition of invasive potential vs untreated spheroids” value is “about 90%” and the “invasive potential … (in words)” value was “significant inhibition”. Besides, in data set [6], the invasive potential entry is recorded as “significantly diminished”. Also, the invasive potential entry in the data set on MDA-MB-231 cells was “significantly diminished”.
As to `COc1c(OC)c2c(c(CCN(C)C)c1SC)Sc1c(CCN(C)C)c(SC)c(OC)c(OC)c1S2` [lissoclinotoxin E], the “spheroid viability vs untreated spheroids on day 5” value in the data set with MDA-MB-231 spheroids [7] (marine natural product hits, 10 μM, 72 h, APH assay) was “exception; also recorded: statistically significant decrease in spheroid viability”.
On to Triton X-100, for which the “spheroid death (control of APH assay)” value in the data set on MDA-MB-231 spheroids [7] is given as “significantly induces spheroid death”; in the data set with MDA-MB-231 spheroids [7] (listed as Triton-X-100), “significantly induced spheroid death”.
